We go through ten compounds from US8222297B2, “Aniline or phenol mustards linked to DNA-affinic molecules or water-soluble aromatic rings and their use as cancer therapeutic agents” (Academia Sinica, priority 2007, dated 2012).

Data set [1] concerns human mammary carcinoma MX-1 xenograft. The data set is described as follows: Antitumor therapeutic effect in nude mice bearing MX-1 xenograft. The data set is classed as in vivo. The conditions noted are these: for log cell kill: estimated by Eq. 4 from remission time; for Duration complete remission maintained without relapse: one cycle 5-dose-treatment, 3 out of 3 mice. The method, then:
(§1) Athymic nude mice bearing the nu/nu gene were used for human breast tumor MX-1 xenograft (FIGS. 3 and 4) and human brain glioma U87 GM xenograft (FIG. 5). Nude mice were obtained from National Cancer Institute, Frederick, Md. Male mice 6 weeks old or older weighing 22 g or more were used for experiments with subcutaneous tumor inoculation as described previously.^62 Drug was administrated via the tail vein by iv injection. Tumor volumes were assessed by measuring length×width×height (or width) by using caliper. Vehicle used was 20 μL DMSO in 180 μL saline. All animal studies were conducted in accordance with the guidelines of the U.S. National Institutes of Health Guide for the Care and Use of Animals and the protocol approved by the Institutional Animal Care and Use Committee.
(§2) Animals. Athymic nude mice bearing the nu/nu gene were obtained from NCI, Frederick, Md. and used for all human tumor xenografts. Male nude mice 6 weeks or older weighing 20-24 g or more were used. Compounds were administered via the tail vein for i.v. injection or infusion as described previously.^59 A typical formulation for chemotherapeutic studies for each drug was dissolved in DSMO to make a 25 mg/ml fresh solution, 0.4 ml of this solution was mixed with 0.3 ml of Tween 80, plus 1.3 ml to make 2 ml of 5 mg/ml solution. Bolus injection volume was 0.1-0.2 ml per mouse. Tumor volume was assessed by measuring length×width×height (or width) by using a caliper. For tumor-bearing nude mice during the course of the experiment, the body weight refers to total weight minus the weight of the tumor. All animal studies were conducted in accordance with the guidelines for the National Institute of Health Guide for the Care and Use of Animals and the protocol approved by the Institutional Animal Care and Use Committee.
The therapeutic effects of a drug against human tumor xenografts in nude mice, under the optimal therapeutic conditions but without any lethality due to drug toxicity, the following degrees of therapeutic effects are defined and calculated by the following formula:
[formula] • where T0 is the initial tumor size (in mm^3) at beginning of drug treatment; • Tc is tumor size of untreated control group on a given date; and • Tx is tumor size of the drug treated group on a given date.
[formula] • Where T0 and Tx are as specified as above. • Tumor disappearance (complete remission or CR) is defined by the effect where [Tx=0] for a period of time (in days) for a proportion of animals (NCR/N), where N is the total number of animals in the group, and NCR is the number of mice in the group that achieved CR. • Tumor relapse is quantitatively calculated by [The Day tumor relapsed(Drelp)−The Day CR achieved(DCR)] (Eq. 3) • for a proportion of animals (Nrelp/N) where N is the total number of animals in the group, and Nrelp is the number of the mice in the group that relapsed. • The log cell kill (LCK) of the tumor tissue after a given chemotherapy that reached CR is estimated by: LCK=log [2^(Tumor remission in days/Tumor doubling time in days)] (Eq. 4)

Data set [2] deals with Human colon carcinoma HCT-116 cells. The data set is described as follows: In vitro cytotoxicity, SRB assay. A general note: The SRB assay estimates cell density from bound dye.
Data set [3] relates to Human mammary carcinoma (MX-1) tumor cells. The data set is described as follows: In vitro cytotoxicity, SRB assay.
Data set [4] relates to human glioma U87 GM s.c. xenograft. The data set is described as follows: Therapeutic effect in nude mice bearing U87 glioma xenograft. In kind it is in vivo. How it is done: as §1
The therapeutic effects of N-mustard compounds, BO-1049, 1051 and 1055, against human glioma U87 GM s.c. xenograft in nude mice were given in FIG. 5, A and B. U87 glioma is known to be refractory tumor that can not be effectively treated with cell-cycle specific anti-tumor drugs such as taxol, epothilones, or arabinosylcytosine. However, cell-cycle non-specific drugs such as alkylating agent, cyclophosphamide or BCNU, yields better therapeutic results. […] However, upon 6 days of recession of treatment with BO-1049 or BO-1055, the tumor began to regrow.
as §2

In data set [5] the test system is CCRF-CEM/Taxol. The data set is described as follows: In vitro cytotoxicity, XTT assay, taxol-resistant subline. The note with it: for fold of cross-resistant, CCRF-CEM/Taxol vs IC50 of parent cell line: number in brackets; for IC50: read-out: IC50 CCRF-CEM/Taxol, XTT assay, 72-hr incubation.
For data set [6], the system named is CCRF-CEM human lymphoblastic leukemia cells. The data set is described as follows: In vitro cytotoxicity, XTT assay. On the technique in general: Tetrazolium dyes change colour on reduction, which living cells bring about.
The test system of data set [7] is various human leukemia and solid tumor. The note with it: in vitro and in vivo; cited from earlier work.
The conditions of data set [8]: unpublished results of the applicant.
[9] abbreviates: read-out: IC50 HCT-116, SRB assay, 72-hr incubation.
[10] abbreviates: read-out: IC50 MX-1, SRB assay, 72-hr incubation.
The mark [11] stands for this setting: 150 mg/kg, Q2D×5, i.v.-injection.
The mark [12] stands for this setting: read-out: IC50 CCRF-CEM, XTT assay, 72-hr incubation.
Where [13] appears, read: Homo sapiens, HCT-116, 72 h, read-out: IC50 HCT-116, SRB assay, 72-hr incubation.
Setting [14] is: Homo sapiens, 72 h, read-out: IC50 MX-1, SRB assay, 72-hr incubation.
Setting [15] is: Homo sapiens, CCRF-CEM, 72 h, read-out: IC50 CCRF-CEM, XTT assay, 72-hr incubation.

Like-named read-outs stand apart in the source and are kept apart here.

The term melting point denotes the temperature, or range, at which the solid turns liquid. With `COc1ccc2nc(C)cc(NNC(=O)Nc3ccc(N(CCCl)CCCl)cc3)c2c1`, the melting point was in the range of 224 to 225 °C.

`Cc1cc(NNC(=O)Nc2ccc(N(CCCl)CCCl)cc2)c2ccccc2n1` had a melting point of 235 to 236 °C.

`Cc1cc(Oc2ccc(NC(=O)Nc3ccc(N(CCCl)CCCl)cc3)cc2)c2cc3c(cc2n1)OCO3` returned a melting point of 217 to 218 °C.

For `Cc1cc(Oc2ccc(NC(=O)Oc3ccc(N(CCCl)CCCl)cc3)cc2)c2cc3c(cc2n1)OCO3`, the melting point lay within 183 to 184 °C.

With “1-{4-[Bis-(2-chloroethyl)amino]phenyl-3-[6-methoxy-2-(4-methoxyphenyl)quinolin-4-yl]urea [BO-1049]”, the “Tumor remission achieved” value in [1] (doses and schedules as in Table 2 (30-150 mg/kg, i.v.)) is “complete tumor remission”. In data set [1], the log cell kill is on record as > 4.1 and the “Duration complete remission maintained without relapse” value is on record as “over 70 days”. For the same compound, the IC50 in [2] (setting [9]) was 3740 nM. Also, the IC50 in data set [3] (setting [10]) worked out at 1840 nM. Besides, in data set [4] (setting [11]), the “time after end of treatment at which tumor began to regrow” value came out at 6 days and the tumor-growth suppression entry is reported as “complete tumor-growth suppression”. The “therapeutic effect compared with cyclophosphamide” value in data set [4] (BO-1049 150, BO-1051 100, BO-1055 30 mg/kg vs cyclophosphamide 80 mg/kg, all Q2D×5, parallel study) is “superior therapeutic effects than cyclophosphamide”. In data set [5], the “fold of cross-resistant, CCRF-CEM/Taxol vs IC50 of parent cell line” value (“fold of cross-resistant, CCRF-CEM/Taxol” for short) is on record as 1.6 x and the IC50 was 587 nM. Besides, in [6] (setting [12]), the IC50 turned out to be 366 nM.

As to `OCc1cc(Nc2c3ccccc3nc3ccccc23)cc(OCCN(CCCl)CCCl)c1` [BO-0742], the “cytotoxicity relative to AHMA (times more cytotoxic)” value in [7] is listed as > 100 time. In addition, the half-life in mice entry in data set [8] is listed as “about 25 min”.

With `COc1cc(N)cc(Nc2c3ccccc3nc3c(OCCN(CCCl)CCCl)cccc23)c1.Cl` [BO-0940, N1-(4-{2-[bis(2-chloroethyl)-amino]-ethoxy}acridin-9-yl)-5-methoxybenzene-1,3-diamine hydrochloride], the “cytotoxicity relative to AHMA (times more cytotoxic)” value in data set [7] was > 100 time.

In the case of `CN(C)CCNC(=O)c1cccc(NC(=O)Nc2ccc(N(CCCl)CCCl)cc2)c1.Cl` [BO-1055, 3-(3-{4-[Bis(2-chloroethyl)amino]phenyl}ureido)-N-(2-dimethylaminoethyl)benzamide hydrochloride], in [1] (30 mg/kg, Q2D × 5, i.v.), the “Maximal body-weight loss (%)” value worked out at 15%. Also, in data set [1], the log cell kill is given as > 4.1. In addition, the “Duration complete remission maintained without relapse” value in [1] is reported as “over 70 days”. For the same compound, the IC50 in [2] (setting [9]) turned out to be 661 nM; in [3] (setting [10]) it was 551 nM; in [5], 1200 nM; in data set [6] (setting [12]), 127 nM. Besides, the “time after end of treatment at which tumor began to regrow” value in data set [4] (30 mg/kg, Q2D×5, i.v.-injection) worked out at 6 days. Also, the “fold of cross-resistant, CCRF-CEM/Taxol” value in data set [5] turned out to be 15.4 x.

On to `CC(=O)O[C@H]1C(=O)[C@@]2(C)[C@H]([C@H](OC(=O)c3ccccc3)[C@]3(O)C[C@H](OC(=O)[C@H](O)[C@@H](NC(=O)c4ccccc4)c4ccccc4)C(C)=C1C3(C)C)[C@]1(OC(C)=O)CO[C@@H]1C[C@@H]2O` [Taxol, reference compound], for which the IC50 in [2] (setting [13]) stood at 1.3 ± 0.2 nM; in [3] (setting [14]) it was 35 ± 14 nM; in data set [6] (setting [15]) it was 1.3 ± 0.1 nM. For the same compound, the “fold of cross-resistant, CCRF-CEM/Taxol” value in data set [5] is 330 x.

`CC[C@]1(O)C[C@@H]2CN(CCc3c([nH]c4ccccc34)[C@@](C(=O)OC)(c3cc4c(cc3OC)N(C)[C@H]3[C@@](O)(C(=O)OC)[C@H](OC(C)=O)[C@]5(CC)C=CCN6CC[C@]43[C@@H]65)C2)C1` [Vinblastine, reference compound]: the IC50 in data set [2] (setting [13]) was 1.8 ± 0.4 nM; in data set [3] (setting [14]), 2.9 ± 0.5 nM; in [6] (setting [15]), 0.73 ± 0.09 nM. The “fold of cross-resistant, CCRF-CEM/Taxol” value in [5] was determined as 106.2 x.
